Experiment [1] addresses T1, ΔF508-CFTR (Homo sapiens, UniProt P13569, DEL508-508).
T1 construct: host or cells: CFBE41o-, doxycycline-inducible
The experiment is described as follows: CFTR cell surface levels using HRP-tagged ΔF508-CFTR expressing CFBE cells, intrinsic corrector capacity. It counts as cell-based. Set-up: % Activation: concentration or dose not given beside the values. Particulars: HRP-tagged ΔF508-CFTR expressing CFBE41o- cells, compound alone (intrinsic corrector capacity), 20 hours at 33° C.; for EC50: read-out: EC50. A digest of the protocol:
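Read-out: chemiluminescent HRP activity of ECL4-HRP-tagged ΔF508-CFTR at the cell surface, 15 min substrate in dark. Normalized as 100×(sample−DMSO)/(positive control−DMSO).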

The target of experiment [2] is T1, ΔF508-CFTR. The experiment is described as follows: CFTR cell surface levels using HRP-tagged ΔF508-CFTR expressing CFBE cells, in the presence of a co-corrector. Particulars: HRP-tagged ΔF508-CFTR CFBE cells, in the presence of 3 μM co-corrector; for EC50: read-out: EC50. It counts as cell-based. The procedure, abridged: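 Chemiluminescent read-out of surface HRP (15 min, dark) after PBS washes. Activity is normalized as 100×(sample−DMSO)/(3 μM co-corrector alone−DMSO).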

The structures appear in SMILES notation.

T1 sequence (P13569 with tags, fused parts or gaps DEL508-508): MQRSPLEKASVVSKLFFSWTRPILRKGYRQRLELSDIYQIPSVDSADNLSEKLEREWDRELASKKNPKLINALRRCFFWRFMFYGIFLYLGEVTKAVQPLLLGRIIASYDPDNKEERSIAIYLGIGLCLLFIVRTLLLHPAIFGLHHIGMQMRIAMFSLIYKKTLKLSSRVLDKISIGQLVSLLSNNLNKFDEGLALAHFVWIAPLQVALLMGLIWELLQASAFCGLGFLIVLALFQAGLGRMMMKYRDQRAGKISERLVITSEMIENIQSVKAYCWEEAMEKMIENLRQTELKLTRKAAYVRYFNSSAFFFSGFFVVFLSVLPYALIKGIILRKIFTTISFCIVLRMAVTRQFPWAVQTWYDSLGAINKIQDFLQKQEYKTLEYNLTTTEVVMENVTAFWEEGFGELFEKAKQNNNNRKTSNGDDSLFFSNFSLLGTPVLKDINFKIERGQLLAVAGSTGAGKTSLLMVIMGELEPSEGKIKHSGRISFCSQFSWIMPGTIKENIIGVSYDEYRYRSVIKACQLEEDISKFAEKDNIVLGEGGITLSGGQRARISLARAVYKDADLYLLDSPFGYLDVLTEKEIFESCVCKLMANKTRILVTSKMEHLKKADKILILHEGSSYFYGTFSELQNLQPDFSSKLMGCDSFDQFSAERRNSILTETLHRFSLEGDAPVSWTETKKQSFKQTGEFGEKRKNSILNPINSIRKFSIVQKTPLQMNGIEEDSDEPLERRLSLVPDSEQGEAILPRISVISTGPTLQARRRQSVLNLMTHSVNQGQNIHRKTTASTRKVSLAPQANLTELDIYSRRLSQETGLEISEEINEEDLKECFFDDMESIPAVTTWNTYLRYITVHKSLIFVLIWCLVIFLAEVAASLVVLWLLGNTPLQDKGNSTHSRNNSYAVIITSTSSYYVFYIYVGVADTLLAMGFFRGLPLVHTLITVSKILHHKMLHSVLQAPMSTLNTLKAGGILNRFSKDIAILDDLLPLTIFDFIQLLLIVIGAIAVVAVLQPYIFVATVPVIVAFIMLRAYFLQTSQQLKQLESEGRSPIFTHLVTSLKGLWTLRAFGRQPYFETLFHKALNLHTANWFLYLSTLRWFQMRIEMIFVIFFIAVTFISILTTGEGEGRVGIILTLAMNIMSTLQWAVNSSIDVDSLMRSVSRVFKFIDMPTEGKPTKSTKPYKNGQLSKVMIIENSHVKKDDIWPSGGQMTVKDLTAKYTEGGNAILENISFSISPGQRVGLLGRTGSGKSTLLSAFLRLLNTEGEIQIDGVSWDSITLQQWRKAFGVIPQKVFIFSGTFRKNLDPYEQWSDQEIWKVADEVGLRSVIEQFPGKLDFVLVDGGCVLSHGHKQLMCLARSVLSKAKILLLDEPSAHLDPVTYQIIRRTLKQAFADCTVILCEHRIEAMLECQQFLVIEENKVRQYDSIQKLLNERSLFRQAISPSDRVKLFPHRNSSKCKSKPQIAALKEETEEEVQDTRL

Regarding `COCCC1CCN(c2cc(C(=O)NS(C)(=O)=O)nc3c2c(C(C)C)nn3-c2cccc(C)c2)CC1` [Compound 161, N-(methanesulfonyl)-4-[4-(2-methoxyethyl)piperidin-1-yl]-1-(3-methylphenyl)-3-(propan-2-yl)-1H-pyrazolo[3,4-b]pyridine-6-carboxamide], in experiment [1], the “% Activation” value is 406.4% and the concentration giving a half-maximal response (EC50) (as a rule, the concentration that produces a half-maximal response) is 730 nM. Also, in experiment [2], the “% Activation” value is reported as 574.1% and the half-maximal effective concentration (EC50) is 355 nM.

With `COC1CCCN(c2cc(C(=O)NS(C)(=O)=O)nc3c2c(C(C)C)nn3-c2cccc(C)c2)C1` (stereo not drawn) [Compound 162, N-(methanesulfonyl)-4-(3-methoxypiperidin-1-yl)-1-(3-methylphenyl)-3-(propan-2-yl)-1H-pyrazolo[3,4-b]pyridine-6-carboxamide], in experiment [1], the “% Activation” value turned out to be 169% and the EC50 is 445 nM. Moreover, in experiment [2], the “% Activation” value is on record as 331.53% and the EC50 was 304 nM.

For `CCS(=O)(=O)NC(=O)c1cc(N2CCCC(OC)C2)c2c(C(C)C)nn(-c3cccc(C)c3)c2n1` (stereo not drawn) [Compound 163, N-(ethanesulfonyl)-4-(3-methoxypiperidin-1-yl)-1-(3-methylphenyl)-3-(propan-2-yl)-1H-pyrazolo[3,4-b]pyridine-6-carboxamide], in experiment [1], the “% Activation” value is on record as 175.4% and the EC50 was found to be 442 nM. In experiment [2], the “% Activation” value came out at 342.3% and the concentration giving a half-maximal response (EC50) worked out at 112 nM.

With `Cc1cccc(-n2nc(C(C)C)c3c(N4CCC(CF)CC4)cc(C(=O)NS(C)(=O)=O)nc32)c1` [Compound 164, 4-[4-(fluoromethyl)piperidin-1-yl]-N-(methanesulfonyl)-1-(3-methylphenyl)-3-(propan-2-yl)-1H-pyrazolo[3,4-b]pyridine-6-carboxamide], in experiment [1], the “% Activation” value turned out to be 295.25% and the concentration for a half-maximal effect (EC50) turned out to be 594 nM. In addition, in experiment [2], the “% Activation” value is 492.45% and the 50% effective concentration (EC50) came to 388 nM.

`Cc1cccc(-n2nc(C(C)C)c3c(N4CCC(S(C)(=O)=O)CC4)cc(C(=O)NS(C)(=O)=O)nc32)c1` [Compound 165, N-(methanesulfonyl)-4-[4-(methanesulfonyl)piperidin-1-yl]-1-(3-methylphenyl)-3-(propan-2-yl)-1H-pyrazolo[3,4-b]pyridine-6-carboxamide]: in experiment [1], the “% Activation” value is recorded as 373.95% and the EC50 was determined as 1780 nM. In experiment [2], the “% Activation” value is recorded as 534.2% and the concentration giving a half-maximal response (EC50) was determined as 885 nM.

With `CC(C)Oc1nn(-c2ccccc2)c2nc(C(=O)NS(C)(=O)=O)cc(-c3ccc(N4CCOCC4)cc3)c12` [Compound 166, N-(methanesulfonyl)-4-[4-(morpholin-4-yl)phenyl]-1-phenyl-3-[(propan-2-yl)oxy]-1H-pyrazolo[3,4-b]pyridine-6-carboxamide], the “% Activation” value is given as 235.2% in experiment [1] and 408.53% in experiment [2]. Further, the EC50 in experiment [1] came to 439 nM; in experiment [2], 310 nM.

With `COCCN(C)c1cc(C(=O)NS(C)(=O)=O)nc2c1c(C(C)C)nn2-c1cccc(C)c1` [Compound 170, N-(methanesulfonyl)-4-[(2-methoxyethyl)(methyl)amino]-1-(3-methylphenyl)-3-(propan-2-yl)-1H-pyrazolo[3,4-b]pyridine-6-carboxamide], in experiment [1], the “% Activation” value is recorded as 213.5% and the concentration for a half-maximal effect (EC50) worked out at 975 nM. In experiment [2], the “% Activation” value is recorded as 425.6% and the 50% effective concentration (EC50) is 722 nM.

For the compound `Cc1cccc(-n2nc(C(C)C)c3c(N4CCC5(CCOCC5)C4)cc(C(=O)NS(C)(=O)=O)nc32)c1` [Compound 171, N-(methanesulfonyl)-1-(3-methylphenyl)-4-(8-oxa-2-azaspiro[4.5]decan-2-yl)-3-(propan-2-yl)-1H-pyrazolo[3,4-b]pyridine-6-carboxamide], the “% Activation” value is listed as 143.4% in experiment [1] and 289.23% in experiment [2]. The values for the half-maximal effective concentration (EC50) in experiment [1] and in experiment [2] were 787 nM and 312 nM, respectively.

Take `CCCCOC1CCN(c2cc(C(=O)NS(C)(=O)=O)nc3c2c(C(C)C)nn3-c2ccc(F)cc2)CC1` [Compound 172, 4-(4-butoxypiperidin-1-yl)-1-(4-fluorophenyl)-N-(methanesulfonyl)-3-(propan-2-yl)-1H-pyrazolo[3,4-b]pyridine-6-carboxamide]: in experiment [1], the “% Activation” value is listed as 280.03% and the EC50 was found to be 330 nM. Further, in experiment [2], the “% Activation” value was 462.4% and the EC50 was determined as 207 nM.

`COC1(C)CCN(c2cc(C(=O)NS(C)(=O)=O)nc3c2c(C(C)C)nn3-c2ccc(F)cc2)CC1` [Compound 173, 1-(4-fluorophenyl)-N-(methanesulfonyl)-4-(4-methoxy-4-methylpiperidin-1-yl)-3-(propan-2-yl)-1H-pyrazolo[3,4-b]pyridine-6-carboxamide]: the “% Activation” value in experiment [1] is 51.395%; in experiment [2], 183.2%. Besides, the EC50 is 412 nM in experiment [1] and 433 nM in experiment [2].

Take `COC1CCN(c2cc(C(=O)NS(=O)(=O)CCNC(=O)c3ccccc3C(=O)O)nc3c2c(C2CCC2)nn3-c2ccccc2)CC1` [Compound 174, 2-[(2-{[3-cyclobutyl-4-(4-methoxypiperidin-1-yl)-1-phenyl-1H-pyrazolo[3,4-b]pyridine-6-carbonyl]sulfamoyl}ethyl)carbamoyl]benzoic acid]: in experiment [1], the “% Activation” value is listed as 347.9% and the EC50 stood at 754 nM. Besides, in experiment [2], the “% Activation” value stood at 545% and the EC50 was determined as 468 nM.

On to `CC(C)COC1CCN(c2cc(C(=O)NS(C)(=O)=O)nc3c2c(C(C)C)nn3-c2ccc(F)cc2)CC1` [Compound 175, 1-(4-fluorophenyl)-N-(methanesulfonyl)-4-[4-(2-methylpropoxy)piperidin-1-yl]-3-(propan-2-yl)-1H-pyrazolo[3,4-b]pyridine-6-carboxamide], for which the “% Activation” value is reported as 270.5% in experiment [1] and 461.1% in experiment [2]. Moreover, the concentration for a half-maximal effect (EC50) in experiment [1] is 337 nM; in experiment [2] it was 200 nM.

Consider `COC1CCN(c2cc(C(=O)NS(=O)(=O)CC(F)(F)F)nc3c2c(C2CCC2)nn3-c2ccccc2)CC1` [Compound 176, 3-cyclobutyl-4-(4-methoxypiperidin-1-yl)-1-phenyl-N-(2,2,2-trifluoroethanesulfonyl)-1H-pyrazolo[3,4-b]pyridine-6-carboxamide], for which, in experiment [1], the “% Activation” value is given as 190.4% and the EC50 is 337 nM. In experiment [2], the “% Activation” value is 390.43% and the 50% effective concentration (EC50) was 209 nM.

For `CC(C)c1nn(-c2ccc(F)cc2)c2nc(C(=O)NS(C)(=O)=O)cc(N3CCCC(C(F)F)C3)c12` (stereo not drawn) [Compound 178, 4-[3-(difluoromethyl)piperidin-1-yl]-1-(4-fluorophenyl)-N-(methanesulfonyl)-3-(propan-2-yl)-1H-pyrazolo[3,4-b]pyridine-6-carboxamide], the “% Activation” value is on record as 202.8% in experiment [1] and 381.73% in experiment [2]. Besides, the 50% effective concentration (EC50) in experiment [1] worked out at 347 nM; in experiment [2], 232 nM.

On to `CC(C)c1nn(-c2ccc(F)cc2)c2nc(C(=O)NS(C)(=O)=O)cc(N3CC4(CCCOC4)C3)c12` [Compound 179, 1-(4-fluorophenyl)-N-(methanesulfonyl)-4-(6-oxa-2-azaspiro[3.5]nonan-2-yl)-3-(propan-2-yl)-1H-pyrazolo[3,4-b]pyridine-6-carboxamide], for which, in experiment [1], the “% Activation” value is 89.165% and the EC50 is 879 nM. In experiment [2], the “% Activation” value was 248.85% and the 50% effective concentration (EC50) worked out at 406 nM.

(Values after patent US10259810B2, “N-sulfonylated pyrazolo[3,4-b]pyridin-6-carboxamides and method of use” (AbbVie S.à.r.l., priority 2015, dated 2019).)
